pIC50: −log10 of the molar value.
Experiments:
human Gal-3 (hGal-3) = human Gal-3 (hGal-3) (Homo sapiens (Human), UniProt P17931); assay: Competitive binding assay: biotinylated hGal-3 to microplate-adsorbed asialofetuin (ASF); details: Activity on hGal-3; binding to ASF-coated plates, 3 hours at 4° C.; mean values
Protocol: Evaluation of Compound Inhibitory Activity (IC50)
The inhibitory activity of compounds is determined in competitive binding assays. This spectrophotometric assay measures the binding of biotinylated human Gal-3 (hGal-3) or human Gal-1 (hGal-1), respectively, to a microplate-adsorbed glycoprotein, asialofetuin (ASF) (Proc Natl Acad Sci USA. 2013 Mar. 26; 110(13):5052-7.). Alternatively, and preferably, a human Gal-1 version in which all six cysteines are substituted by serines may be used.
Briefly, compounds are serially diluted in DMSO (working dilutions). ASF-coated 384 well plates are supplemented with 22.8 μL/well of biotinylated hGal-3 or hGal-1 in assay buffer (i.e. 300-1000 ng/mL biotinylated hGal-3 or hGal-1) to which 1.2 µL of compound working dilutions are added and mixed.
Plates are incubated for 3 hours at 4° C., then washed with cold assay buffer (3×50 uL), incubated for 1 hour with 25 μL/well of a streptavidin-peroxidase solution (diluted in assay buffer to 80 ng/mL) at 4° C., followed by further washing steps with assay buffer (3×50 uL). Finally, 25 µL/well of ABTS substrate is added.
The calculated IC50 values may fluctuate depending on the daily assay performance. Fluctuations of this kind are known to those skilled in the art. IC50 values from several measurements are given as mean values.

human Gal-1 (hGal-1) = human Gal-1 (hGal-1) (Homo sapiens, UniProt P09382); assay: Competitive binding assay: biotinylated hGal-1 to microplate-adsorbed asialofetuin (ASF); details: Activities on hGal-1; binding to ASF-coated plates, 3 hours at 4° C.; mean values; read-out: Gal-1 IC50
human Gal-1 (hGal-1), sequence (P09382 2-135 limits assumed): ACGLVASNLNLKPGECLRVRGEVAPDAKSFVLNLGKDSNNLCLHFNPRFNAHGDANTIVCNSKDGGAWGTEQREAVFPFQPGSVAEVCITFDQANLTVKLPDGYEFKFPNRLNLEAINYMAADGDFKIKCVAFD
Protocol: Evaluation of Compound Inhibitory Activity (IC50) The inhibitory activity of compounds is determined in competitive binding assays. […] Alternatively, and preferably, a human Gal-1 version in which all six cysteines are substituted by serines may be used. Briefly, compounds are serially diluted in DMSO (working dilutions). […] Plates are incubated for 3 hours at 4° C., then washed with cold assay buffer (3×50 uL), incubated for 1 hour with 25 μL/well of a streptavidin-peroxidase solution (diluted in assay buffer to 80 ng/mL) at 4° C., followed by further washing steps with assay buffer (3×50 uL). Finally, 25 µL/well of ABTS substrate is added. […] The calculated IC50 values may fluctuate depending on the daily assay performance. Fluctuations of this kind are known to those skilled in the art. IC50 values from several measurements are given as mean values.

human Gal-3 (hGal-3), sequence (P17931 whole entry): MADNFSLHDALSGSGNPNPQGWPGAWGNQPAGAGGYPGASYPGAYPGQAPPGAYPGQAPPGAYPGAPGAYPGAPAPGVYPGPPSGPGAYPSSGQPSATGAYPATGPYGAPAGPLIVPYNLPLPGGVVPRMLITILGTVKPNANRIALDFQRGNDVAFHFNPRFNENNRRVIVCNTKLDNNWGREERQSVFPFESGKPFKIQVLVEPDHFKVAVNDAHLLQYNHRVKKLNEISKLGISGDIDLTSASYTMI

Structure (SMILES) | pIC50 (human Gal-3 (hGal-3)) | pIC50 (human Gal-1 (hGal-1))
CO[C@@H]1[C@@H](n2cc(-c3ccc(C)c(F)c3F)nn2)[C@@H](O)[C@@H](CO)O[C@@H]1CC1=NOC2(CCC(C(C)(C)O)CC2)C1 (stereo partly drawn) [Example 1.54, (2R,3R,4S,5R,6R)-4-(4-(2,3-difluoro-4-methylphenyl)-1H-1,2,3-triazol-1-yl)-2-(hydroxymethyl)-6-((8-(2-hydroxypropan-2-yl)-1-oxa-2-azaspiro[4.5]dec-2-en-3-yl)methyl)-5-methoxytetrahydro-2H-pyran-3-ol] | 6.70 | 5.27
CO[C@@H]1[C@@H](n2cc(-c3ccc(C)c(F)c3F)nn2)[C@@H](O)[C@@H](CO)O[C@@H]1CC1=NOC2(CCC(F)(F)CC2)C1 [Example 1.26, (2R,3R,4S,5R,6R)-6-((8,8-difluoro-1-oxa-2-azaspiro[4.5]dec-2-en-3-yl)methyl)-4-(4-(2,3-difluoro-4-methylphenyl)-1H-1,2,3-triazol-1-yl)-2-(hydroxymethyl)-5-methoxytetrahydro-2H-pyran-3-ol] | 6.96 | 5.40
CO[C@@H]1[C@@H](n2cc(-c3cc(F)c(F)c(F)c3)nn2)[C@@H](O)[C@@H](CO)O[C@@H]1CC1=NO[C@]2(CC[C@H](C)CC2)C1 [Example 1.33, (2R,3R,4S,5R,6R)-2-(hydroxymethyl)-5-methoxy-6-(((5r,8R)-8-methyl-1-oxa-2-azaspiro[4.5]dec-2-en-3-yl)methyl)-4-(4-(3,4,5-trifluorophenyl)-1H-1,2,3-triazol-1-yl)tetrahydro-2H-pyran-3-ol] | 6.48 | 5.43
CO[C@@H]1[C@@H](n2cc(-c3cc(F)c(F)c(F)c3)nn2)[C@@H](O)[C@@H](CO)O[C@@H]1CC1=NO[C@]2(CC[C@@H](C)CC2)C1 [Example 1.34, (2R,3R,4S,5R,6R)-2-(hydroxymethyl)-5-methoxy-6-(((5s,8S)-8-methyl-1-oxa-2-azaspiro[4.5]dec-2-en-3-yl)methyl)-4-(4-(3,4,5-trifluorophenyl)-1H-1,2,3-triazol-1-yl)tetrahydro-2H-pyran-3-ol] | 6.28 | 5.60
CO[C@@H]1[C@@H](n2cc(-c3ccc(C)c(F)c3F)nn2)[C@@H](O)[C@@H](CO)O[C@@H]1CC1=NOC2(CCC(C#N)CC2)C1 (stereo partly drawn) [Example 1.51, 3-(((2R,3R,4S,5R,6R)-4-(4-(2,3-difluoro-4-methylphenyl)-1H-1,2,3-triazol-1-yl)-5-hydroxy-6-(hydroxymethyl)-3-methoxytetrahydro-2H-pyran-2-yl)methyl)-1-oxa-2-azaspiro[4.5]dec-2-ene-8-carbonitrile] | 7.00 | 5.72
CO[C@@H]1[C@@H](n2cc(-c3ccc(C)c(F)c3F)nn2)[C@@H](O)[C@@H](CO)O[C@@H]1CC1=NO[C@]2(CC[C@H](NCC(F)F)CC2)C1 [Example 1.74, (2R,3R,4S,5R,6R)-4-(4-(2,3-difluoro-4-methylphenyl)-1H-1,2,3-triazol-1-yl)-6-(((5r,8R)-8-((2,2-difluoroethyl)amino)-1-oxa-2-azaspiro[4.5]dec-2-en-3-yl)methyl)-2-(hydroxymethyl)-5-methoxytetrahydro-2H-pyran-3-ol] | 6.92 | 5.62
CO[C@@H]1[C@@H](n2cc(-c3ccc(F)c(F)c3F)nn2)[C@@H](O)[C@@H](CO)O[C@@H]1CC1=NO[C@]2(CC[C@@H](NC(=O)OC(C)(C)C)CC2)C1 [Example 1.42, tert-butyl ((5s,8S)-3-(((2R,3R,4S,5R,6R)-5-hydroxy-6-(hydroxymethyl)-3-methoxy-4-(4-(2,3,4-trifluorophenyl)-1H-1,2,3-triazol-1-yl)tetrahydro-2H-pyran-2-yl)methyl)-1-oxa-2-azaspiro[4.5]dec-2-en-8-yl)carbamate] | 6.88 | 6.07

The next lines start with the values.

pIC50 (human Gal-3 (hGal-3)) | pIC50 (human Gal-1 (hGal-1)) | Structure (SMILES)
6.85 | 5.89 | CO[C@@H]1[C@@H](n2cc(-c3cc(F)c(F)c(F)c3)nn2)[C@@H](O)[C@@H](CO)O[C@@H]1CC1=NO[C@]2(CC[C@H](NC3CC3)CC2)C1 [Example 2.22, (2R,3R,4S,5R,6R)-6-(((5r,8R)-8-(cyclopropylamino)-1-oxa-2-azaspiro[4.5]dec-2-en-3-yl)methyl)-2-(hydroxymethyl)-5-methoxy-4-(4-(3,4,5-trifluorophenyl)-1H-1,2,3-triazol-1-yl)tetrahydro-2H-pyran-3-ol]
7.28 | 6.51 | CO[C@@H]1[C@@H](n2cc(-c3ccc(F)c(F)c3F)nn2)[C@@H](O)[C@@H](CO)O[C@@H]1CC1=NO[C@]2(CC[C@H](NC(C)=O)CC2)C1 [Example 2.08, N-((5r,8R)-3-(((2R,3R,4S,5R,6R)-5-hydroxy-6-(hydroxymethyl)-3-methoxy-4-(4-(2,3,4-trifluorophenyl)-1H-1,2,3-triazol-1-yl)tetrahydro-2H-pyran-2-yl)methyl)-1-oxa-2-azaspiro[4.5]dec-2-en-8-yl)acetamide]
6.72 | 5.70 | CO[C@@H]1[C@@H](n2cc(-c3cc(F)c(F)c(F)c3)nn2)[C@@H](O)[C@@H](CO)O[C@@H]1CC1=NO[C@]2(CC[C@H](O)CC2)C1 [Example 2.03, (5r,8R)-3-(((2R,3R,4S,5R,6R)-5-hydroxy-6-(hydroxymethyl)-3-methoxy-4-(4-(3,4,5-trifluorophenyl)-1H-1,2,3-triazol-1-yl)tetrahydro-2H-pyran-2-yl)methyl)-1-oxa-2-azaspiro[4.5]dec-2-en-8-ol]
7.05 | 5.64 | CO[C@@H]1[C@@H](n2cc(-c3ccc(C)c(F)c3F)nn2)[C@@H](O)[C@@H](CO)O[C@@H]1CN1CC2(CCOCC2)OC1=O [Example 3.03, 3-(((2R,3R,4S,5R,6R)-4-(4-(2,3-difluoro-4-methylphenyl)-1H-1,2,3-triazol-1-yl)-5-hydroxy-6-(hydroxymethyl)-3-methoxytetrahydro-2H-pyran-2-yl)methyl)-1,8-dioxa-3-azaspiro[4.5]decan-2-one]
6.55 | 5.55 | CO[C@@H]1[C@@H](n2cc(-c3cc(F)c(F)c(F)c3)nn2)[C@@H](O)[C@@H](CO)O[C@@H]1CC1=NOC2(CCN(C(C)=O)CC2)C1 [Example 2.30, 1-(3-(((2R,3R,4S,5R,6R)-5-hydroxy-6-(hydroxymethyl)-3-methoxy-4-(4-(3,4,5-trifluorophenyl)-1H-1,2,3-triazol-1-yl)tetrahydro-2H-pyran-2-yl)methyl)-1-oxa-2,8-diazaspiro[4.5]dec-2-en-8-yl)ethan-1-one]
6.28 | 5.46 | CO[C@@H]1[C@@H](n2cc(-c3cc(F)c(F)c(F)c3)nn2)[C@@H](O)[C@@H](CO)O[C@@H]1CC1=NOC2(CCN(S(C)(=O)=O)CC2)C1 [Example 2.31, (2R,3R,4S,5R,6R)-2-(hydroxymethyl)-5-methoxy-6-((8-(methylsulfonyl)-1-oxa-2,8-diazaspiro[4.5]dec-2-en-3-yl)methyl)-4-(4-(3,4,5-trifluorophenyl)-1H-1,2,3-triazol-1-yl)tetrahydro-2H-pyran-3-ol]
6.49 | 5.54 | CO[C@@H]1[C@@H](n2cc(-c3cc(F)c(F)c(F)c3)nn2)[C@@H](O)[C@@H](CO)O[C@@H]1CC1=NOC2(CCC(=NO)CC2)C1 (stereo partly drawn) [Example 2.18, 3-(((2R,3R,4S,5R,6R)-5-hydroxy-6-(hydroxymethyl)-3-methoxy-4-(4-(3,4,5-trifluorophenyl)-1H-1,2,3-triazol-1-yl)tetrahydro-2H-pyran-2-yl)methyl)-1-oxa-2-azaspiro[4.5]dec-2-en-8-one oxime]
7.09 | 5.89 | CO[C@@H]1[C@@H](n2cc(-c3ccc(C)c(F)c3F)nn2)[C@@H](O)[C@@H](CO)O[C@@H]1CN1C=NC2(CCCCC2)C1 [Example 4.04, (2R,3R,4S,5R,6R)-6-((1,3-diazaspiro[4.5]dec-1-en-3-yl)methyl)-4-(4-(2,3-difluoro-4-methylphenyl)-1H-1,2,3-triazol-1-yl)-2-(hydroxymethyl)-5-methoxytetrahydro-2H-pyran-3-ol]
6.26 | 5.15 | CO[C@@H]1[C@@H](n2cc(-c3cc(F)c(F)c(F)c3)nn2)[C@@H](O)[C@@H](CO)O[C@@H]1CC1=NO[C@]2(CC[C@@H](NC(C)C)CC2)C1 [Example 2.13, (2R,3R,4S,5R,6R)-2-(hydroxymethyl)-6-(((5s,8S)-8-(isopropylamino)-1-oxa-2-azaspiro[4.5]dec-2-en-3-yl)methyl)-5-methoxy-4-(4-(3,4,5-trifluorophenyl)-1H-1,2,3-triazol-1-yl)tetrahydro-2H-pyran-3-ol]
